Data published in patent US20220290196A1, “GENETICALLY ENGINEERED MICROBES AND BIOSYNTHETIC METHODS” (The Regents of the University of California, priority 2019, published 2022).
Where “and” joins values, the source holds several entries; their conditions need not be identical. Identical values can stand only once.

Experiments:
[1] = system: Tar14; experiment: Tar14 in vitro halogenation assay with substrate analogues; format: biochemical, Saccharomonospora sp. CNQ-490; conditions: substrate 0.25 mM, Tar14 5 μM, 30° C., 4 h; for Enzyme assays, % conversion, Tar14, Br^−: KBr 100 mM; for Enzyme assays, % conversion, Tar14, Cl^−: NaCl 100 mM
Experimental: Tar14. Tar14 reaction mixture of total volume 100 μL in 1.5 mL Eppendorf tube was composed of the following components:
Buffer (10 mM Tris, 10% glycerol, pH 7.6): up to 100 μL

[2] = system: S. coelicolor M1146-tarM1Δtar14; experiment: Feeding/chemical complementation experiment, incorporation into taromycin; format: cell-based, Streptomyces coelicolor; conditions: for Feeding, % incorporation, A1 domain: incorporation only at residue-1; for Feeding, % incorporation, A1 domain / Feeding, % incorporation, A1 + A13 domain: analogue fed at 2 mM, judged by comparison to taromycin yields by S. coelicolor M1146-tarM1; for Feeding, % incorporation, A1 + A13 domain: incorporation at residue-1 and residue-13
Experimental: For taromycin production, seed culture in TSBY medium was inoculated with corresponding S. coelicolor spore suspension (collected from fresh SFM plates) and was cultured for 36-48 h till a dense creamy consistency was reached. Kanamycin at 10 μg mL^−1 final concentration was added to the seed cultures of S. coelicolor M1146-pCAP01-tarM1 and S. coelicolor M1146-pCAP01-tarM1Δtar14. Inocula of seed culture (5%, v/v) were used for fermentation in MP medium (1% glucose, 1% soluble starch, 0.4% peptone, 0.3% yeast extract, 0.3% soytone, 0.2% meat extract, 0.2% CaCO3, and 0.5% NaCl, pH 7.2). Fermentation was carried out at 30° C. and 220 rpm in a rotary incubator for 6 days. A maximum of 40 mL of production medium was added into 250 mL flask with metal springs.
S. coelicolor M1146-pCAP01-tarM1Δtar14 cultures were grown as described in Section 3 for taromycin production. After 18 and 36 h of cultivation, tryptophan analogues in the form of water suspension were added to the production cultures to a final concentration 2 mM. The cultures were further incubated for 5 days before extraction and further analysis by LC-HRMS^n. All experiments were repeated independently twice with three replicates for each compound. In parallel, cultures of S. coelicolor M1146-pCAP01-tarM1 and S. coelicolor M1146-pCAP01-tarM1Δtar14 were grown as controls.
To analyze production of taromycins and analogues, solid phase extraction of the culture supernatants was performed with Amberlite XAD-16 resin (SIGMA). For analytical purposes around 1 g of washed and equilibrated resin was added to 20 mL of supernatant followed by shaking for 30-60 min. Samples were then spun down and decanted. The resin was washed twice with water (15 mL), before elution with methanol (5 mL). The methanol extracts from the resin were used for LCMS analysis without additional concentration step.

[3] = system: Tar13; experiment: Tar13 in vitro assay with substrate analogues; format: biochemical, Saccharomonospora sp. CNQ-490; conditions: for Enzyme assays, % conversion, Tar13: substrate 0.25 mM, Tar13 20 μM, overnight at 30° C.
Experimental: Tar13. Upon testing different reaction compositions (buffers, concentration of ascorbic acids and hemin, pH), the following conditions were found as optimal:
(§1) Buffer: up to 50 μL (50 mM Tris, 500 mM NaCl 10% glycerol, pH 8.0)
(§2) In a separate Eppendorf tube premix:
Add substrate solution to the enzyme mixture to start reaction
When Tar13 was directly added to the enzyme reaction, immediate protein precipitation occurred. The same was observed if the enzyme was not pre-mixed with hemin and ascorbic acid. Full substrate conversion was achieved after overnight incubation at 30° C. in 1.5 mL Eppendorf tube with shaking. The reactions were quenched by addition of equal volume of HPLC grade methanol.

[4] = system: Tar16; experiment: Coupled Tar13/Tar16 assay (Tar16 substrate generated in situ by Tar13); format: biochemical, Saccharomonospora sp. CNQ-490; conditions: for Enzyme assays, % conversion, Tar16: substrates generated in situ by Tar13, Tar16 10 μM, overnight at 30° C.
Experimental: Coupled Tar13 Tar]6. The reaction mixture of total volume 100 μL in 1.5 mL Eppendorf tube was composed of the following components:
Buffer: up to 50 μL (50 mM Tris, 500 mM NaCl 10% glycerol, pH 8.0
Substrate (for Tar13 enzyme): 0.25 μM
as §2
Buffer: up to […] (50 mM Tris, 500 mM NaCl 10% glycerol, pH 8.0)
Add substrate solution to the enzyme mixture to start reaction.
No difference in conversion was observed when Tar16 was added into the assay mixture either together with Tar13, or after 2 h of incubation at 30° C., or after overnight incubation at 30° C., followed by another 4 h of incubation after addition of Tar16. Therefore, for convenience, all components were mixed at the same time point, the reactions were incubated at 30° C. overnight, after which the assays were quenched by addition of equal volume of HPLC grade methanol.

[5] = system: Tar14, Tar13, and Tar13/16; experiment: In vitro assays with Tar14, Tar13, and Tar13/16 (FIG. 20 summary); format: biochemical, Saccharomonospora sp. CNQ-490; conditions: Tar14, Tar13, Tar13/16
[6] = substrate: N[C@@H](Cc1c[nH]c2cc(Cl)ccc12)C(=O)O; experiment: Kinetic characterization of Tar13-catalyzed oxidation of L-6-Cl-tryptophan; format: biochemical, Saccharomonospora sp. CNQ-490; conditions: other: Tar13, L-6-Cl-Trp, 30° C., pH 8.0
Experimental: To determine kinetic parameters for Tar13-catalyzed oxidation of L-6-Cl-tryptophan, the following reaction conditions were used:
as §1, §2
The enzyme mixture was added to the substrate solution to start the reactions. The reactions were incubated at 30° C. for 5, 10, 15, 30 min, after which the assays were quenched by addition of equal volume of HPLC grade methanol and frozen at −70° C. till further analysis by HPLC. All assays were performed in triplicates for each substrate concentration and every time point. In parallel, for each time point and substrate concentration, assays with no added enzyme were used as controls. Prior HPLC analysis (method 5), L-tryptophan was added to the quenched reaction mixtures as an internal standard for quantification.
Product formation was quantitated by calculating decrease of the area of the remaining substrate in comparison to the substrate peak area in the control with no enzyme added, and the ratio of peak areas to internal standard were fitted into a calibration curve to determine product concentrations.

L-5-OH-Trp [Compound 20] was tested, and the “Enzyme assays, % conversion, Tar14, Br^−” value [1] was less than 1%, the “Enzyme assays, % conversion, Tar14, Cl^−” value [1] was 5% and the “Feeding, % incorporation, A1 domain” value [2] was 10%.

For `N[C@@H](Cc1c[nH]c2ccc(Cl)cc12)C(=O)O` [Compound 14, D/L-5-chlorotryptophan], the “Enzyme assays, % conversion, Tar14, Br^−” value [1] was less than 1%, the “Enzyme assays, % conversion, Tar14, Cl^−” value [1] was less than 1% and the “Enzyme assays, % conversion, Tar13” value [3] was less than 1%. The “Enzyme assays, % conversion, Tar16” value [4] was 100% and the “Feeding, % incorporation, A1 domain” value [2] was 30%.

In the case of `Nc1ccccc1C(=O)C[C@H](N)C(=O)O` [Compound 5, L-kynurenine], the “Enzyme assays, % conversion, Tar14, Br^−” value [1] is reported as 30% and the “Enzyme assays, % conversion, Tar14, Cl^−” value [1] is reported as 30%.

With `Cc1ccc2[nH]cc(C[C@H](N)C(=O)O)c2c1` [Compound 18, D/L-5-methyltryptophan] the “Enzyme assays, % conversion, Tar14, Br^−” value [1] was 25%, the “Enzyme assays, % conversion, Tar14, Cl^−” value [1] was 50% and the “Enzyme assays, % conversion, Tar13” value [3] was less than 1%. For the same molecule, the “Enzyme assays, % conversion, Tar16” value [4] was 70% and the “Feeding, % incorporation, A1 domain” value [2] was 35%.

`N[C@H](Cc1c[nH]c2ccccc12)C(=O)O` [Compound 11, D-tryptophan] was tested, and the “Enzyme assays, % conversion, Tar14, Br^−” value [1] was 20%, the “Enzyme assays, % conversion, Tar14, Cl^−” value [1] was 15% and the “Enzyme assays, % conversion, Tar13” value [3] was less than 1%. The “Enzyme assays, % conversion, Tar16” value [4] was 40%.

`NCCc1c[nH]c2ccc(O)cc12` [Compound 22, serotonine] was tested, and the “Conversion by any of the enzymes” value [5] was “not converted by any of the enzymes”.

For `NC(Cc1c[nH]c2ccc([N+](=O)[O-])cc12)C(=O)O` [Compound 21, D/L-5-NO2-Trp], the “Feeding, % incorporation, A1 domain” value [2] was 60%.

In the case of `N[C@@H](Cc1c[nH]c2cc(F)ccc12)C(=O)O` [Compound 16, D/L-6-fluorotryptophan], the “Enzyme assays, % conversion, Tar14, Br^−” value [1] is reported as 25%, the “Enzyme assays, % conversion, Tar14, Cl^−” value [1] is reported as 25% and the “Enzyme assays, % conversion, Tar13” value [3] is reported as 5%. The “Enzyme assays, % conversion, Tar16” value [4] was 100%, the “Feeding, % incorporation, A1 + A13 domain” value [2] was 90% and the “Feeding, % incorporation, A1 domain” value [2] was less than 5%.

In the case of `Nc1cc(Cl)ccc1C(=O)CC(N)C(=O)O` [Compound 1, L-4-chlorokynurenine], the “Enzyme assays, % conversion, Tar14, Br^−” value [1] is reported as 5% and the “Enzyme assays, % conversion, Tar14, Cl^−” value [1] is reported as less than 1%.

For `N[C@@H](Cc1c[nH]c2cccc(F)c12)C(=O)O` [Compound 15, D/L-4-fluorotryptophan], the “Enzyme assays, % conversion, Tar14, Br^−” value [1] was 15%, the “Enzyme assays, % conversion, Tar14, Cl^−” value [1] was 10% and the “Feeding, % incorporation, A1 + A13 domain” value [2] was 15%. The “Feeding, % incorporation, A1 domain” value [2] was 15%.

With L-5-CH3O-Trp [Compound 19] the “Enzyme assays, % conversion, Tar14, Br^−” value [1] was less than 5%, the “Enzyme assays, % conversion, Tar14, Cl^−” value [1] was less than 1% and the “Enzyme assays, % conversion, Tar13” value [3] was less than 1%. The “Enzyme assays, % conversion, Tar16” value [4] was 100% and the “Feeding, % incorporation, A1 domain” value [2] was 15%.

With `N[C@@H](Cc1ccccc1)C(=O)O` [Compound 24, L-phenylalanine] the “Conversion by any of the enzymes” value [5] was “not converted by any of the enzymes”.

`N[C@@H](Cc1c[nH]c2cc(Br)ccc12)C(=O)O` [Compound 9, L-6-bromotryptophan] was tested, and the “Enzyme assays, % conversion, Tar14, Br^−” value [1] was less than 1%, the “Enzyme assays, % conversion, Tar13” value [3] was 100% and the “Enzyme assays, % conversion, Tar16” value [4] was 100%. The “Feeding, % incorporation, A1 + A13 domain” value [2] was 20%.

`N[C@@H](Cc1c[nH]c2cccc(Br)c12)C(=O)O` [Compound 12, L-4-bromotryptophan] was tested, and the “Enzyme assays, % conversion, Tar14, Br^−” value [1] was less than 5% and the “Enzyme assays, % conversion, Tar14, Cl^−” value [1] was less than 1%.

`Cc1cccc2[nH]cc(C[C@H](N)C(=O)O)c12` [Compound 17, D/L-4-methyltryptophan] was tested, and the “Enzyme assays, % conversion, Tar14, Br^−” value [1] was 75%, the “Enzyme assays, % conversion, Tar14, Cl^−” value [1] was 100% and the “Feeding, % incorporation, A1 domain” value [2] was 40%.

For `N[C@@H](Cc1c[nH]c2ccc(Br)cc12)C(=O)O` [Compound 8, L-5-Bromotryptophan], the “Enzyme assays, % conversion, Tar14, Cl^−” value [1] was less than 1%, the “Enzyme assays, % conversion, Tar13” value [3] was less than 1% and the “Enzyme assays, % conversion, Tar16” value [4] was 100%. For the same molecule, the “Feeding, % incorporation, A1 domain” value [2] was 50%.

For L-7-Br-Trp [Compound 13], the “Enzyme assays, % conversion, Tar14, Br^−” value [1] was 100%, the “Enzyme assays, % conversion, Tar14, Cl^−” value [1] was 100% and the “Feeding, % incorporation, A1 domain” value [2] was less than 5%.

`N[C@@H](Cc1c[nH]c2cc(Cl)ccc12)C(=O)O` [Compound 7, L-6-Chlorotryptophan] was tested, and the “Enzyme assays, % conversion, Tar14, Br^−” value [1] was less than 5%, the “Conversion/activity as substrate for Tar13” value [3] was “complete conversion” and the “Enzyme assays, % conversion, Tar13” value [3] was 100%. The “Conversion in coupled Tar13/Tar16 reaction” value ([4]; Tar16 added to Tar13 reaction) was “full conversion”, the “Enzyme assays, % conversion, Tar16” value [4] was 100% and the “Chemical complementation of taromycin production” value ([2]; S. coelicolor M1146-tarM1Δtar14 mutant fed with compound) was “restored taromycin production”. For the same molecule, the “Feeding, % incorporation, A1 + A13 domain” value [2] was 100%.

With `N[C@@H](Cc1ccc(O)cc1)C(=O)O` [Compound 23, L-tyrosine] the “Conversion by any of the enzymes” value [5] was “not converted by any of the enzymes”.

B1: Saccharomonospora sp. CNQ-490 Tar13 (tryptophan 2,3-dioxygenase), wild type, SEQ ID NO: 1 (expressed SEQ ID NO: 2) (Saccharomonospora piscinae) (protein)
chain: MTERTATRTEPAYGEILRLDELLELACVNDEADRALFLSAHQACEIWFAVVLRHLEDVTDALSLDDGATAAELLERLPRIITVIIEHFEVLGTLKPEAFDRIRADLGSSSGFQSVQYREIEYLCGARDTRFLNTAGFRDRDRRRLRERLAKRSLSNVFLEYRGRAGDRDACRISDALHEFDDSVRALRLRHAGIAELFLGSIPGTAGTAGAAYLRRSASRTLFPELFDRRASGTGG
In the case of B1, the Vmax [6] is reported as 0.061 ± 0.006 µM/s and the kcat [6] is reported as 0.03 s⁻¹ and 0.031 ± 0.003 s⁻¹.
